# Assay results taken from US7939530B2, “Treatment of lymphoma using 10-propargyl-10-deazaaminopterin and gemcitabine” (Sloan-Kettering Institute for Cancer Research, priority 2004, dated 2011).
# Tests used:
# [1] = test system: caspase 3 in SKI-DLCL-1 cells; assay: Caspase 3 activation (EnzChek Caspase-3 Assay Kit #2, Z-DEVD-R110 cleavage); type: cell-based, human; settings: for Fluorescence at 485ex/527em: 1 nM, control 134.3; for Difference from control: fluorescence at 485ex/527em
# Method: To further evaluate the activity of PDX and Gem combinations, Caspase activity was tested by EnzChek® Caspase-3 Assay Kit #2 (Molecular Probes) based upon the fluorometric detection of caspase-dependent Z-DEVD-R110 cleavage (rhodamine 110 bis-[N-CBZ-L-aspartyl-L-glutamyl-L-valyl-L-aspartic acid amide], a non-fluorescent bisamide), which, via a two step process, first yields the monoamide product (weakly fluorescent) and then the fluorescent product R110 (rhodamine 110, strongly fluorescent). Detection was performed on a Fluoroskan Ascent FL fluorescent plate reader (Thermo Lab Systems, Helsinki, Finland) according to the manufacturer's guidelines.
# [2] = test system: SKI-DLCL-1 lymphoma cells; assay: Trypan Blue Exclusion cytotoxicity assay of single agents and combinations; type: cell-based, human; settings: MTX 10 nM, PDX 1 nM, Ara-C 40 nM, Gem 10 nM, control = 1
# Description: As set forth in greater detail in the examples herein, combination therapy using PDX and gemcitabine has been tested in vitro and in in vivo model systems for efficacy against lymphoma. Table 1 sets forth data obtained in a cytotoxicity assay (Example 2) using SKI-DLCL-1 lymphoma cells. SKI-DLCL-1 is a diffuse large b cell lymphoma (DLBCL) cell line that is particularly resistant to PDX.
# In Table 1, the additive effect is in each case the % of control for the single agents multiplied together. The expected additive effect for PDX+Gem is better than for MTX and ara-C, because the agents are individually better. What is observed for both MTX/AraC combinations and PDX/Gem combinations is that the actual result is better than the predicted additive result. The extent of this synergism is quantified in Table 1 as (actual-additive)/additive so that the amount of reduction that occurs through the use of the combination is expressed as a percentage of the expected additive benefit.
# To evaluate cytotoxicity of combination of PDX and GEM, a Trypan Blue Exclusion Assay was performed by aliquoting 5×10^5 SKI-DLBCL cells into each well of a 24 well plate with a final volume of 1 milliliter. Each drug was added in duplicate to the plate wells as follows: alone (MTX 10 nM, PDX 1 nM, Ara-C 40 nM, or Gem 10 nM), PDX+Gem or MTX+Ara-C for 48 h (hours). For the scheduled administration of drug, PDX or MTX alone were dispensed in additional duplicate wells. After 24 hours Gem and Ara-C were added to these wells, respectively, and incubated for 48 hours. At the end of incubation, 20 l of each cell culture was added to 20 l of trypan blue, after which […] was added to a hemocytometer (Hausser Scientific, Horsham, Pa.), where viable cells were counted based upon the presence (dead cells) or exclusion (live cells) of dye.
# [3] = test system: subcutaneous tumors of SKI; assay: Preliminary combination xenograft experiment; type: in vivo, irradiated NOD-SCID mice; settings: for tumor growth compared to the control: MTX 40 mg/kg (MTD), Ara-C 300 mg/kg (MTD) or combination at one-half the MTD, all sacrificed by week three
# Method: Given the experience that SKI-DLCL-1 is the most PDX resistant line in the panel, it was selected for these in vivo synergy experiments. […] All animals were treated with the maximum tolerated dose (MTD) of each drug, save the combination studies.
# [4] = test system: SKI-DLBCL-1 xenograft; assay: Second combination xenograft experiment (FIG. 5); settings: SKI-DLBCL; PDX and Gem at one-quarter of the MTD (15 mg/kg); MTX, Ara-C alone at MTD; ip twice weekly, 4 doses
# Method: (§1) The same type of test was repeated to assess the in vivo efficacy of using combination therapies. […] Schedule dependent treatment was also determined by pretreating animals with PDX or MTX followed 24 hours later with Gem or Ara-C, respectively. One cohort of animals was treated with Gem followed by PDX. In all cases, the control animals received intraperitoneal injections of normal saline.
# (§2) Tumor bearing mice were assessed for weight loss and tumor volume at least twice weekly for the duration of the experiment. The data are expressed as the average tumor volume (mm3) per group as a function of time. Tumors were assessed by measuring the two largest perpendicular axes (l=length, w=width) with standard calipers. Tumor volume was calculated using the formula 4/3 πr^3 where r=(l+w)/4. Animals were sacrificed when one dimensional tumor diameter exceeded 2.0 cm, or after loss of more than 10% of their body weight in accordance with institutional guidelines. Animals were housed in standard shoe box cages in temperature and humidity constant rooms on a 12 hour light and dark cycle. Food and water were supplied ad libitum. Animals were maintained in core animal facilities under an institute approved animal protocol.
# [5] = Second combination xenograft experiment (FIG. 5); settings: SCID beige (CBSCBG-MM double), mouse, in vivo, ip
# Method: as §1, §2
# [6] = test system: SKI-DLCL-1 cells; assay: Induction of apoptosis (YO-PRO-1/propidium iodide flow cytometry); type: cell-based, human; settings: all drugs 1 nM, total exposure 72 hours, sequential: first drug 24 hours prior to second
# Method: Ara-C, PDX and Gem in combined and scheduled exposures. In each case, the total exposure time was 72 hours. In sequential treatments, the first drug was administered 24 hours prior to the second drug.
# To assess apoptosis occurring as a result of combination therapies, apoptosis was assessed using two well standardized techniques. In the first (YO-PRO), cell membrane permeability was determined by measuring fluorescence of treated and control cells. 2×10^7 SKI-DLBCL cells were treated with either MTX, Ara-C, Gem or PDX alone or combinations of drug given together or scheduled. All drugs were assayed at equimolar concentrations (i.e. 1 nM). The incubation conditions were modeled after the in vitro cytotoxicity experiments. Single agent drugs or combinations of all drugs studied without schedule considerations were incubated for 72 hours, while drugs that were studied in some schedule were introduced in a 24+48 incubation scheme (i.e. drug B added 24 hours following drug A, then incubated for an additional 48 hours for a total incubation time of 72 hours). Cells were then collected, washed twice and re-suspended at a concentration of 1×10^6/mL in DPBS. Membrane permeability was detected via the differential cellular permeability of the fluorescent dyes YO-PRO®-1 and propidium iodide by flow cytometry, as per the manufacturer's guidelines (Vybrant apoptosis kit #4, Molecular Probes, Eugene, Oreg.). In addition to monitoring apoptosis, cell cycle kinetic analyses were also performed on all treated cells based the propidium iodide binding. Apoptotic cells were noted to be permeable to the green fluorescent dye YO-PRO®-1 (em 530, FL-1), and impermeable to the red fluorescent dye propidium iodide (em 575, FL-3). Typically, […] cells allow the entrance of both dyes, whereas living cells are impermeable to both dyes.
# [7] = test system: human SKI-DLCL-1 (de novo diffuse large B cell) non-Hodgkin's lymphoma xenografts; assay: Subcutaneous lymphoma xenograft treatment; type: in vivo; settings: MTX 40 mg/kg
# Description: (§3) In order to study the effects of PDX on lymphoma growth in vivo, subcutaneous transplantation models in NOD/SCID mice were generated using three established human lymphoma cell line representative of aggressive transformed FL (RL) and de novo extranodal DLBCL (HT; SKI-DLCL-1) histologies. Six to eight week old non-obsese diabetic severe combined immunodeficient (NOD/SCID) mice (Jackson Laboratories, Bar Harbor, Me.) were sub-lethally irradiated with […] from a gamma source and inoculated with 10×10^6 lymphoma cells via a subcutaneous route. When tumor volumes approached 100 mm^3, mice were divided into three groups, averaging 3-8 mice per group. Mice were treated with normal saline or the maximum tolerated dose (MTD) of MTX (40 mg/kg) or PDX (60 mg/kg) via an intraperitoneal route twice weekly for two weeks (four total doses). […] (Sirotnak, et al., Cancer Chemother. Pharmacol. 12: 26-30 (1984); Sirotnak et al., Cancer Chemother. Pharmacol. 42: 313-318 (1998).
# (§4) Engraftment rates in this experiment ranged from 80 to 90%. Palpable tumors formed under the skin approximately 7-10 days after inoculation and were readily measurable with calipers. Mice with subcutaneous lymphoma growths survived an average of 40-50 days after inoculation.
# [8] = test system: human HT (diffuse large B cell) non-Hodgkin's lymphoma xenografts; assay: Subcutaneous lymphoma xenograft treatment; type: in vivo; settings: MTX 40 mg/kg; for Avg Tumor Diameter (mm ± SE): at the nadir of tumor regression
# Description: as §3, §4
# [9] = test system: human RL (transformed follicular) non-Hodgkin's lymphoma xenografts; assay: Subcutaneous lymphoma xenograft treatment; type: in vivo; settings: MTX 40 mg/kg
# Description: as §3, §4
# [10] = cited from earlier work
# [11] = test system: SKI-DLBCL-1 xenografts; assay: TUNEL immunohistochemical staining for apoptosis in xenografts; type: in vivo, mice; settings: day 21; four doses on days 0, 3, 7 and 10; MTX 40 mg/kg, PDX 60 mg/kg
# Method: Immunohistochemical staining for apoptosis as measured by terminal deoxynucleotide transferase-mediated nick end-labeling (TUNEL) was performed on SKI-DLBCL-1 xenografts from mice sacrificed at day 21 following initiation of antifolate therapy. Mice received four doses of saline, MTX (40 mg/kg) or PDX (60 mg/kg) on days 0, 3, 7 and 10.
# [12] = PDX 60 mg/kg ip twice weekly for two weeks
Structure (SMILES),Fluorescence at 485ex/527em [1],Difference from control [1],fraction of control [2],tumor growth compared to the control [3],xenograft outcome in words [4],MTD at 2 weeks [5] [mg/kg],% change in apoptosis [6] [%],further results
"Nc1ccn([C@@H]2O[C@H](CO)[C@@H](O)[C@@H]2O)c(=O)n1 [Ara-C, cytarabine]",141.1,6.8,0.76,modest growth delay,sacrificed early due to excessive tumor growth,300,−3.08,–
"Nc1ccn([C@@H]2O[C@H](CO)[C@@H](O)C2(F)F)c(=O)n1 [Gem, 1-(2′,2′-difluoro-β-D-arabinofuranosyl) cytosine]",195.4,61.1,0.72,–,–,60,33.76,"tumor volume as % of initial tumor volume ([3]; 60 mg/kg, regrowth by day 44 after initial response): 318%"
"CN(Cc1cnc2nc(N)nc(N)c2n1)c1ccc(C(=O)N[C@@H](CCC(=O)O)C(=O)O)cc1 [MTX, methotrexate]",131,−3.3,0.92,modest growth delay,sacrificed early due to excessive tumor growth,–,−12.24,"Complete Regression (no/total) ([7]; PDX 60 mg/kg): 0/10; tumor regressions / complete remissions (% of mice) ([7]; PDX 60 mg/kg): no regressions; Avg Tumor Diameter (mm ± SE) [7, 12]: 9.5 ± 0.4 mm; Avg change in Tumor Volume (mm^3 ± SE) [7, 12]: +299 ± 58 mm^3; Complete Regression (no/total) ([8]; PDX 60 mg/kg): 0/7; complete tumor regression (% of mice) ([8]; PDX 60 mg/kg): no tumor regression; Avg change in Tumor Volume (mm^3 ± SE) [8, 12]: +300 ± 225 mm^3; Avg Tumor Diameter (mm ± SE) ([8]; PDX 60 mg/kg): 8.7 ± 2.0 mm; Avg Tumor Diameter (mm ± SE) ([8]; PDX 60 mg/kg, listed as MDX): 8.7 mm; Complete Regression (no/total) ([9]; PDX 60 mg/kg): 0/12; tumor regressions (% of mice) ([9]; PDX 60 mg/kg): no regressions; Avg Tumor Diameter (mm ± SE) [9, 12]: 10.9 ± 0.5 mm; Avg change in Tumor Volume (mm^3 ± SE) [9, 12]: +619 ± 108 mm^3; maximum tolerated dose (MTD) ([10]; intraperitoneal, twice weekly for two weeks): 40 mg/kg; toxic deaths at the MTD ([10]; nude mice): no toxic deaths; apoptotic cells in tumor tissue (TUNEL) [11]: little or no evidence of apoptotic cells"
